Test results published in patent US12668599B2, “Heterobifunctional compounds and methods of treating disease” (Halda Therapeutics OpCo, Inc., priority 2023, dated 2026).

Legend:
[1] = test system: T-Rex 293 cell line SC3 cells having increased expression of androgen receptor protein due to exposure to doxycycline; test: Cellular growth inhibition, T-Rex 293 SC3 cells with doxycycline-induced androgen receptor (CellTiter-Glo 2.0, 72 hours); format: cell-based; details: T-Rex 293 SC3 cells with 10 ng/ml doxycycline (increased androgen receptor expression), 72 hours, CellTiter-Glo 2.0
[2] = test system: T-Rex 293 cell line SC3 cells lacking increased expression of androgen receptor protein; test: Cellular growth inhibition, T-Rex 293 SC3 cells without doxycycline (CellTiter-Glo 2.0, 72 hours); format: cell-based; details: T-Rex 293 SC3 cells not exposed to doxycycline (no increased androgen receptor expression)
[3] = test system: VCaP cells; test: Cellular growth inhibition assay for VCaP cells (CellTiter-Glo 2.0, 72 hours); format: cell-based, human; details: CellTiter-Glo 2.0

SMILES	GI50 ([3]; Homo sapiens, VCaP, 72 h)	GI50 ([3]; 72 hours)	GI50 [1]	GI50 ([2]; 72 h)	GI50 [2]
COc1cc(O[C@H]2CC[C@H](NC(=O)c3cnc(N4CCC5(CCN(c6ccc(C7=N[C@@H](C)c8nnc(C)n8-c8sc(C)c(C)c87)cc6)CC5)C4)nc3)CC2)ccc1C#N [Compound I-37, N-((1r,4r)-4-(4-cyano-3-methoxyphenoxy)cyclohexyl)-2-(8-(4-((S)-2,3,6,9-tetramethyl-6H-thieno[3,2-f][1,2,4]triazolo[4,3-a][1,4]diazepin-4-yl)phenyl)-2,8-diazaspiro[4.5]decan-2-yl)pyrimidine-5-carboxamide]	< 500 nM	–	< 500 nM	< 500 nM	–
COc1cc(O[C@H]2CC[C@H](NC(=O)c3ccc(N4CCC5(CCN(c6ccc(C7=N[C@@H](C)c8nnc(C)n8-c8sc(C)c(C)c87)cc6)CC5)C4)nc3)CC2)ccc1C#N [Compound I-38]	< 500 nM	–	< 500 nM	< 500 nM	–
COc1cc(O[C@H]2CC[C@H](NC(=O)c3ccc(N4CC5(CC(C#Cc6ccc(C7=N[C@@H](C)c8nnc(C)n8-c8sc(C)c(C)c87)cc6)C5)C4)nn3)CC2)ccc1C#N [Compound I-40, N-[4-(4-cyano-3-methoxy-phenoxy)cyclohexyl]-6-[6-[2-[4-[(9S)-4,5,9,13-tetramethyl-3-thia-1,8,11,12-tetrazatricyclo[8.3.0.0^2,6]trideca-2 (6),4,7,10,12-pentaen-7-yl]phenyl]ethynyl]-2-azaspiro[3.3]heptan-2-yl]pyridazine-3-carboxamide]	< 500 nM	–	< 500 nM	< 500 nM	–
CC[C@@H]1N=C(c2ccc(C3CCC4(CC3)CCN(c3ccc(C(=O)NC5CCC(Oc6ccc(C#N)c(OC)c6)CC5)nn3)C4)cc2)c2c(sc(C)c2C)-n2c(C)nnc21 (stereo partly drawn) [Compound I-41, N-((1r,4r)-4-(4-cyano-3-methoxyphenoxy)cyclohexyl)-6-(8-(4-((S)-6-ethyl-2,3,9-trimethyl-6H-thieno[3,2-f][1,2,4]triazolo[4,3-a][1,4]diazepin-4-yl)phenyl)-2-azaspiro[4.5]decan-2-yl) pyridazine-3-carboxamide]	–	< 500 nM	< 500 nM	–	< 500 nM
COc1cc(O[C@H]2CC[C@H](NC(=O)c3ccc(N4C[C@H]5CN(c6ccc(C7=N[C@@H](C)c8nnc(C)n8-c8sc(C)c(C)c87)cc6)C[C@H]5C4)nn3)CC2)ccc1C#N [Compound I-47]	< 500 nM	–	< 500 nM	< 500 nM	–
COc1cc(O[C@H]2CC[C@H](NC(=O)c3ccc(N4C[C@]5(C)CN(c6ccc(C7=N[C@@H](C)c8nnc(C)n8-c8sc(C)c(C)c87)cc6)C[C@]5(C)C4)nn3)CC2)ccc1C#N [Compound I-48]	< 500 nM	–	< 500 nM	< 500 nM	–
COc1cc(O[C@H]2CC[C@H](NC(=O)c3ccc(N4CCC5(CCC(Oc6ccc(C7=N[C@@H](C)c8nnc(C)n8-c8sc(C)c(C)c87)cc6)C5)C4)nn3)CC2)ccc1C#N (stereo partly drawn) [Compound I-50]	< 500 nM	–	< 500 nM	< 500 nM	–
COc1cc(O[C@H]2CC[C@H](NC(=O)c3ccc(N4CCC5(CCC(Oc6ccc(C7=N[C@@H](C)c8nnc(C)n8-c8sc(C)c(C)c87)cc6)C5)C4)nn3)CC2)ccc1C#N (stereo partly drawn) [Compound I-52]	–	< 500 nM	< 500 nM	–	< 500 nM
COc1cc(O[C@H]2CC[C@H](NC(=O)c3ccc(N4CCC5(CCC(c6ccc(C7=N[C@@H](C)c8nnc(C)n8-c8sc(C)c(C)c87)cc6)CC5)C4)cn3)CC2)ccc1C#N (stereo partly drawn) [Compound I-53]	< 500 nM	–	< 500 nM	< 500 nM	–
COc1cc(O[C@H]2CC[C@H](NC(=O)c3ccc(N4CCC5(CCN(c6ccc(C7=N[C@@H](C)c8nnc(C)n8-c8sc(C)c(C)c87)cc6)CC5)C4)cc3)CC2)ccc1C#N [Compound I-55]	< 500 nM	–	< 500 nM	< 500 nM	–
COc1cc(O[C@H]2CC[C@H](NC(=O)c3ccc(N4CCC5(CCC(c6ccc(C7=N[C@@H](C)c8nnc(C)n8-c8sc(C)c(C)c87)cc6C)CC5)C4)nn3)CC2)ccc1C#N (stereo partly drawn) [Compound I-61]	–	< 500 nM	< 500 nM	–	< 500 nM
COc1cc(O[C@H]2CC[C@H](NC(=O)c3ccc(N4CCC5(CCC(c6ccc(C7=N[C@@H](C)c8nnc(C)n8-c8sc(C)c(C)c87)c(Cl)c6)CC5)C4)nn3)CC2)ccc1C#N (stereo partly drawn) [Compound I-65]	500 to 1500 nM	–	< 500 nM	> 3000 nM	–
COc1cc(O[C@H]2CC[C@H](NC(=O)c3ccc(N4CCC5(CCC(c6ccc(C7=N[C@@H](C)c8nnc(C)n8-c8sc(C)c(C)c87)c(OC)c6)CC5)C4)nn3)CC2)ccc1C#N (stereo partly drawn) [Compound I-69]	–	< 500 nM	< 500 nM	–	< 500 nM
COc1cc(O[C@H]2CC[C@H](NC(=O)c3ccc(N4CCC5(CCN(c6ccc(C7=N[C@@H](C)c8nnc(C)n8-c8sc(C)c(C)c87)cc6)CC5)C4)nn3)CC2)ccc1C#N [Compound I-70]	< 500 nM	–	< 500 nM	< 500 nM	–
COc1cc(O[C@H]2CC[C@H](NC(=O)c3ccc(N4CCC5(CCN(c6ccc(C7=N[C@@H](C)c8nnc(C)n8-c8sc(C)c(C)c87)c(C)c6)CC5)C4)nn3)CC2)ccc1C#N [Compound I-72]	< 500 nM	–	< 500 nM	< 500 nM	–

More lines, main results first:

GI50 ([3]; Homo sapiens, VCaP, 72 h)	GI50 ([3]; 72 hours)	SMILES	GI50 [1]	GI50 ([2]; 72 h)	GI50 [2]
< 500 nM	–	COc1cc(O[C@H]2CC[C@H](NC(=O)c3cnc(N4CCC5(CCN(c6ccc(C7=N[C@@H](C)c8nnc(C)n8-c8sc(C)c(C)c87)cc6)CC5)C4)cn3)CC2)ccc1C#N [Compound I-39, N-((1r,4r)-4-(4-cyano-3-methoxyphenoxy)cyclohexyl)-5-(8-(4-((S)-2,3,6,9-tetramethyl-6H-thieno[3,2-f][1,2,4]triazolo[4,3-a][1,4]diazepin-4-yl)phenyl)-2,8-diazaspiro[4.5]decan-2-yl) pyrazine-2-carboxamide]	< 500 nM	< 500 nM	–
< 500 nM	–	COc1cc(O[C@H]2CC[C@H](NC(=O)c3ccc(N4CCC5(CCN(c6ccc(C7=N[C@@H](C)c8nnc(C)n8-c8sc(C)c(C)c87)c(F)c6)CC5)C4)nn3)CC2)ccc1C#N [Compound I-45, N-[4-(4-cyano-3-methoxy-phenoxy)cyclohexyl]-6-[8-[3-fluoro-4-[(9S)-4,5,9,13-tetramethyl-3-thia-1,8,11,12-tetrazatricyclo[8.3.0.0^2,6]trideca-2 (6),4,7,10,12-pentaen-7-yl]phenyl]-2,8-diazaspiro[4.5]decan-2-yl]pyridazine-3-carboxamide]	< 500 nM	< 500 nM	–
< 500 nM	–	COc1cc(O[C@H]2CC[C@H](NC(=O)c3ccc(N4CCC5(CCN(c6ccc(C7=N[C@@H](C)c8nnc(C)n8-c8sc(C)c(C)c87)cc6C)CC5)C4)nn3)CC2)ccc1C#N [Compound I-46, N-[4-(4-cyano-3-methoxy-phenoxy)cyclohexyl]-6-[8-[2-methyl-4-[(9S)-4,5,9,13-tetramethyl-3-thia-1,8,11,12-tetrazatricyclo[8.3.0.0^2,6]trideca-2 (6),4,7,10,12-pentaen-7-yl]phenyl]-2,8-diazaspiro[4.5]decan-2-yl]pyridazine-3-carboxamide]	< 500 nM	< 500 nM	–
–	< 500 nM	COc1cc(O[C@H]2CC[C@H](NC(=O)c3ccc(N4CCC5(CCC(Oc6ccc(C7=N[C@@H](C)c8nnc(C)n8-c8sc(C)c(C)c87)cc6)C5)C4)nn3)CC2)ccc1C#N (stereo partly drawn) [Compound I-51]	< 500 nM	–	< 500 nM
< 500 nM	–	COc1cc(O[C@H]2CC[C@H](NC(=O)c3cnc(N4CCC5(CCC(c6ccc(C7=N[C@@H](C)c8nnc(C)n8-c8sc(C)c(C)c87)cc6)CC5)C4)cn3)CC2)ccc1C#N (stereo partly drawn) [Compound I-54, N-[4-(4-cyano-3-methoxy-phenoxy)cyclohexyl]-5-[8-[4-[(9S)-4,5,9,13-tetramethyl-3-thia-1,8,11,12-tetrazatricyclo[8.3.0.0^2,6]trideca-2 (6),4,7,10,12-pentaen-7-yl]phenyl]-2-azaspiro[4.5]decan-2-yl]pyrazine-2-carboxamide]	< 500 nM	< 500 nM	–
< 500 nM	–	COc1cc(O[C@H]2CC[C@H](NC(=O)c3ccc(N4CCC5(CCC(c6ccc(C7=N[C@@H](C)c8nnc(C)n8-c8sc(C)c(C)c87)c(F)c6)CC5)C4)nn3)CC2)ccc1C#N (stereo partly drawn) [Compound I-59]	< 500 nM	< 500 nM	–
< 500 nM	–	COc1cc(O[C@H]2CC[C@H](NC(=O)c3ccc(N4CCC5(CCC(c6ccc(C7=N[C@@H](C)c8nnc(C)n8-c8sc(C)c(C)c87)cc6C)CC5)C4)nn3)CC2)ccc1C#N (stereo partly drawn) [Compound I-60]	< 500 nM	< 500 nM	–
< 500 nM	–	COc1cc(O[C@H]2CC[C@H](NC(=O)c3ccc(N4CCC5(CCC(c6ccc(C7=N[C@@H](C)c8nnc(C)n8-c8sc(C)c(C)c87)c(C)c6)CC5)C4)nn3)CC2)ccc1C#N (stereo partly drawn) [Compound I-63]	< 500 nM	< 500 nM	–
–	< 500 nM	COc1cc(O[C@H]2CC[C@H](NC(=O)c3ccc(N4CCC5(CCC(c6ccc(C7=N[C@@H](C)c8nnc(C)n8-c8sc(C)c(C)c87)cc6OC)CC5)C4)nn3)CC2)ccc1C#N (stereo partly drawn) [Compound I-67]	< 500 nM	–	< 500 nM
< 500 nM	–	COc1cc(O[C@H]2CC[C@H](NC(=O)c3ccc(N4CCC5(CCC(c6ccc(C7=N[C@@H](C)c8nnc(C)n8-c8sc(C)c(C)c87)c(OC)c6)CC5)C4)nn3)CC2)ccc1C#N (stereo partly drawn) [Compound I-68]	< 500 nM	< 500 nM	–
–	< 500 nM	COc1cc(O[C@H]2CC[C@H](NC(=O)c3ccc(N4CCC5(CCN(c6ccc(C7=N[C@@H](C)c8nnc(C)n8-c8sc(C)c(C)c87)cc6)CC5)C4)nn3)CC2)ccc1C#N [Compound I-71]	< 500 nM	–	< 500 nM
